In the NIST ThermoML archive (doi:10.1016/j.jct.2012.11.032):

Assay: xn = mol fraction of the nth substance listed
Conditions: 101 kPa, Liquid; for speed of sound: Sing-around technique in a fixed-path interferometer; for mass density: Vibrating tube method

CCCCCCCCCCn1cc[n+](C)c1.[Cl-] [1-decyl-3-methylimidazolium chloride] + O
Conditions	mass density, 283 K [kg/m3]	mass density, 288 K [kg/m3]	mass density, 293 K [kg/m3]	speed of sound, 283 K [m/s]	speed of sound, 288 K [m/s]	speed of sound, 293 K [m/s]	speed of sound, 298 K [m/s]
x1 = 0.000105	999.733	999.142	998.25	1449.9	1467.8	1483.9	1498
x1 = 0.000185	999.76	999.164	998.269	1451.1	1468.9	1484.9	1498.9
x1 = 0.000277	999.776	999.176	998.279	1452.4	1470.2	1486	1500
x1 = 0.000377	999.82	999.206	998.297	1453.9	1471.5	1487.2	1501.1
x1 = 0.000452	999.839	999.216	998.301	1454.6	1472.4	1488.1	1501.8
x1 = 0.000546	999.878	999.247	998.325	1455.8	1473.5	1489.2	1502.8
x1 = 0.000728	999.945	999.3	998.361	1458.5	1476	1491.4	1504.9
x1 = 0.000836	999.997	999.347	998.402	1460.3	1477.5	1492.8	1506.1
x1 = 0.001002	1000.05	999.38	998.424	1462.6	1479.5	1494.6	1507.7
x1 = 0.001099	1000.05	999.375	998.408	1463.7	1480.5	1495.4	1508.4
x1 = 0.00118	1000.1	999.412	998.437	1464.7	1481.3	1496.1	1509
x1 = 0.001259	1000.11	999.417	998.436	1465	1481.7	1496.5	1509.4
x1 = 0.001351	1000.13	999.423	998.434	1465.9	1482.5	1497.1	1509.9
x1 = 0.001452	1000.14	999.42	998.423	1466.5	1483	1497.6	1510.3
x1 = 0.001539	1000.14	999.421	998.415	1467.1	1483.4	1497.9	1510.6
x1 = 0.001631	1000.14	999.412	998.403	1467.9	1483.9	1498.3	1510.9
x1 = 0.001869	1000.13	999.393	998.372	1468.9	1484.8	1499	1511.5
x1 = 0.001988	1000.13	999.38	998.354	1469.3	1485.2	1499.4	1511.8
